According to the supplement of paper PMC10307832:

Key:
Experiment in all cases: relative viability (nuclei count vs DMSO), 5 days (fraction); higher = more cells survive
[1] = tested on: 201T
Procedure, shortened: (§1)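 The day after seeding in 1536-well plates, lung cancer cell lines were treated by pin tool with a single drug, or with a fixed anchor-drug dose together with five library-drug doses (not always all listed) in √10 steps. After 5 days, a combined fix-and-stain solution (final 0.05% Triton X-100, 1% formaldehyde, 1 ug/ml Hoechst) was added. Nuclei counted on 4× images gave relative viability as treated counts over vehicle counts, reported as the median of duplicate plates.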

[2] = tested on: HARA
Procedure, shortened: as §1

[3] = tested on: HCC-44
Procedure, shortened: as §1

[4] = tested on: LK-2
Procedure, shortened: as §1

[5] = tested on: SK-MES-1
Procedure, shortened: as §1

[6] = tested on: NCI-H520
Procedure, shortened: as §1

[7] = tested on: NCI-H1666
Procedure, shortened: as §1

[8] = tested on: HCC-15
Procedure, shortened: as §1

[9] = tested on: HCC-827
Procedure, shortened: as §1

[10] = tested on: COR-L23
Procedure, shortened: as §1

[11] = tested on: NCI-H1437
Procedure, shortened: as §1

[12] = tested on: COR-L 105
Procedure, shortened: as §1

[13] = tested on: NCI-H838
Procedure, shortened: as §1

[14] = tested on: NCI-H1792
Procedure, shortened: as §1

[15] = tested on: NCI-H441
Procedure, shortened: as §1

[16] = tested on: A-427
Procedure, shortened: as §1

[17] = tested on: NCI-H596
Procedure, shortened: as §1

[18] = tested on: NCI-H23
Procedure, shortened: as §1

[19] = tested on: EKVX
Procedure, shortened: as §1

[20] = tested on: NCI-H1975
Procedure, shortened: as §1

C[C@@H]1CN(CC(=O)Nc2ccc3c(c2)Cc2cccc(-c4cc(=O)cc(N5CCOCC5)o4)c2S3)C[C@H](C)O1 + CC1(C)CCC(c2ccc(Cl)cc2)=C(CN2CCN(c3ccc(C(=O)NS(=O)(=O)c4ccc(N[C@H](CCN5CCOCC5)CSc5ccccc5)c(S(=O)(=O)C(F)(F)F)c4)cc3)CC2)C1 [Navitoclax] (partner 0.5 µM)
relative viability ([1]; first compound 0.04 µM): 1.21
relative viability ([1]; first compound 0.1265 µM): 1.2
relative viability ([1]; first compound 0.4 µM): 1.19
relative viability ([1]; first compound 4 µM): 1.14
relative viability ([2]; first compound 0.04 µM): 1.2
relative viability ([2]; first compound 0.1265 µM): 1.12
relative viability ([2]; first compound 0.4 µM): 1.21
relative viability ([2]; first compound 4 µM): 1.14
relative viability ([3]; first compound 0.04 µM): 0.987
relative viability ([3]; first compound 0.1265 µM): 0.894
relative viability ([3]; first compound 0.4 µM): 0.835
relative viability ([3]; first compound 4 µM): 0.943
relative viability ([4]; first compound 0.1265 µM): 0.83
relative viability ([4]; first compound 0.4 µM): 0.831
relative viability ([4]; first compound 4 µM): 1.02
relative viability ([5]; first compound 0.04 µM): 1.37
relative viability ([5]; first compound 0.1265 µM): 1.16
relative viability ([5]; first compound 0.4 µM): 1.1
relative viability ([5]; first compound 4 µM): 1.1
relative viability ([6]; first compound 0.04 µM): 1.2
relative viability ([6]; first compound 0.1265 µM): 1.03
relative viability ([6]; first compound 0.4 µM): 0.888
relative viability ([6]; first compound 4 µM): 1.08
relative viability ([7]; first compound 0.04 µM): 1.14
relative viability ([7]; first compound 0.1265 µM): 1.12
relative viability ([7]; first compound 0.4 µM): 0.862
relative viability ([7]; first compound 4 µM): 0.781
relative viability ([8]; first compound 0.04 µM): 0.7
relative viability ([8]; first compound 0.1265 µM): 0.639
relative viability ([8]; first compound 0.4 µM): 0.682
relative viability ([8]; first compound 4 µM): 0.556
relative viability ([9]; first compound 0.04 µM): 0.931
relative viability ([9]; first compound 0.1265 µM): 0.944
relative viability ([9]; first compound 0.4 µM): 1.04
relative viability ([9]; first compound 4 µM): 1.03
relative viability ([10]; first compound 0.04 µM): 1.25
relative viability ([10]; first compound 0.1265 µM): 0.985
relative viability ([10]; first compound 0.4 µM): 1.17
relative viability ([10]; first compound 4 µM): 0.962
relative viability ([11]; first compound 0.04 µM): 1.14
relative viability ([11]; first compound 0.1265 µM): 1.1
relative viability ([11]; first compound 0.4 µM): 1.13
relative viability ([11]; first compound 4 µM): 0.882
relative viability ([12]; first compound 0.04 µM): 1.01
relative viability ([12]; first compound 0.1265 µM): 0.801
relative viability ([12]; first compound 0.4 µM): 0.728
relative viability ([12]; first compound 4 µM): 0.686
relative viability ([13]; first compound 0.04 µM): 1.17
relative viability ([13]; first compound 0.1265 µM): 1.16
relative viability ([13]; first compound 0.4 µM): 1.07
relative viability ([13]; first compound 4 µM): 0.896
relative viability ([14]; first compound 0.04 µM): 0.593
relative viability ([14]; first compound 0.1265 µM): 0.597
relative viability ([14]; first compound 0.4 µM): 0.632
relative viability ([14]; first compound 4 µM): 0.597
relative viability ([15]; first compound 0.04 µM): 0.427
relative viability ([15]; first compound 0.4 µM): 0.576
relative viability ([15]; first compound 4 µM): 0.318
relative viability ([16]; first compound 0.04 µM): 0.988
relative viability ([16]; first compound 0.1265 µM): 0.982
relative viability ([16]; first compound 0.4 µM): 0.983
relative viability ([16]; first compound 4 µM): 0.967
relative viability ([17]; first compound 0.04 µM): 0.958
relative viability ([17]; first compound 0.1265 µM): 0.994
relative viability ([17]; first compound 0.4 µM): 0.934
relative viability ([17]; first compound 4 µM): 0.992
relative viability ([18]; first compound 0.04 µM): 1
relative viability ([18]; first compound 0.1265 µM): 1.03
relative viability ([18]; first compound 0.4 µM): 0.708
relative viability ([18]; first compound 4 µM): 0.668
relative viability ([19]; first compound 0.04 µM): 0.899
relative viability ([19]; first compound 0.1265 µM): 0.894
relative viability ([19]; first compound 0.4 µM): 0.862
relative viability ([19]; first compound 4 µM): 0.812
relative viability ([20]; first compound 0.04 µM): 1.33
relative viability ([20]; first compound 0.1265 µM): 1.06
relative viability ([20]; first compound 0.4 µM): 1.02
relative viability ([20]; first compound 4 µM): 0.846
